Values joined by “and” are separate entries in the source; they are usually repeats but may differ in a detail not shown here. Identical values can stand only once.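 Step 1: Grow cells in 96-well plates. Step 2: Expose to compound for 48 hours at 5 concentrations. Step 3: Interpolate endpoints linearly; if unreached, use highest concentration. Here, GI50 denotes the concentration required for 50% inhibition of growth. TGI: total growth inhibition.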
What was measured:
Assay in all cases: DTP human tumour cell line panel, 48 h
PC-3 prostate = tested on: PC-3 prostate
DU-145 prostate = tested on: DU-145 prostate
MDA-N = tested on: MDA-N
MCF7 breast = tested on: MCF7 breast
LXFL 529 NSCLC = tested on: LXFL 529 NSCLC
DMS 273 small cell lung = tested on: DMS 273 small cell lung
RXF-631 renal = tested on: RXF-631 renal
M19-MEL melanoma = tested on: M19-MEL melanoma
XF 498 CNS = tested on: XF 498 CNS

| SMILES | TGI (LXFL 529 NSCLC) | TGI (DMS 273 small cell lung) | TGI (RXF-631 renal) [µM] | TGI (M19-MEL melanoma) | TGI (XF 498 CNS) [µM] | other results |
| --- | --- | --- | --- | --- | --- | --- |
| CCOC(=O)c1cc2cc([N+](=O)[O-])ccc2oc1=O |  |  |  |  |  | TGI (PC-3 prostate): > 100 µM; TGI (DU-145 prostate): > 100 µM; TGI (MDA-N): > 100 µM; TGI (MCF7 breast): > 100 µM |
| COc1ccccc1OCC(COC(=O)Nc1ccc(C)cc1)OC(=O)Nc1ccc(C)cc1 (configuration not stated) | > 100 µM | 32 µM | 47.2 |  |  |  |
| OCC1CC2CC1C1(C2)OCCO1 (configuration not stated) | > 100 µM | > 100 µM | > 100 | > 100 µM | > 100 |  |
| C=C1C(=O)C23C(CC(OC(C)=O)C1[C@@H]2OC(C)=O)C1(C)C(OC(C)=O)CCC(C)(C)C1C[C@@H]3OC(C)=O (some centres not stated) | 2.63 µM | 3.07 µM |  | 3.16 µM |  |  |
| CC(=O)OCC1OC(O[C@@H]2C[C@H]3C(C)(C)[C@H](OC(C)=O)CC[C@]3(C)[C@H]3CC[C@@H]4[C@]5(CC[C@@]4(C)[C@@]32C)O[C@@H]([C@H](O)C(C)(C)O)C[C@@H]5C)C(O)C(O)C1O (some centres not stated) |  |  |  |  |  | GI50 (PC-3 prostate): 3.84 µM; TGI (PC-3 prostate): 14.3 µM; GI50 (DU-145 prostate): 10.6 µM; TGI (DU-145 prostate): 22.8 µM; GI50 (MDA-N): 7.08 µM; TGI (MDA-N): 20.1 µM; GI50 (MCF7 breast): 1.06 µM; TGI (MCF7 breast): 6.03 µM |
| O=C(O)c1oc2ccc([N+](=O)[O-])c3c2c1CCC3 | > 100 µM | > 100 µM |  | > 100 µM | > 100 |  |
| C[P+](C)(CC(F)(F)F)c1ccccc1 | > 100 µM | > 100 µM |  | > 100 µM |  |  |
| C[Si](C)(C)[C@@]1([Se]c2ccccc2)CC[C@@H]1C(=O)c1ccccc1 | > 100 µM | > 100 µM | > 100 | > 100 µM |  |  |
| CC(C)(C)c1ccc(C(O)(c2ccc(C(C)(C)C)cc2)c2ccc(C(C)(C)C)cc2)cc1 |  |  |  |  |  | TGI (PC-3 prostate): > 100 µM; TGI (DU-145 prostate): > 100 µM; TGI (MDA-N): > 100 µM; TGI (MCF7 breast): > 100 µM |
| COc1ccc(-c2nc(N)nc(-c3cc(C)ccc3O)c2Cl)cc1 | > 100 µM | > 100 µM | > 100 | > 100 µM | 64.3 |  |
| COc1ccc2c(c1)[n+]([O-])c(-c1ccc(Cl)c(Cl)c1)c(N)[n+]2[O-] | > 100 µM | 66.7 µM | 82.3 | > 100 µM |  |  |
| Cc1nc(Nc2ccc([N+](=O)[O-])cc2)sc1C(=O)/C=C/c1ccc(N(C)C)cc1 |  | > 100 µM | > 100 | > 100 µM |  |  |
| O=C(O)CNS(=O)(=O)c1ccc(NC(=O)c2cccc([N+](=O)[O-])c2)cc1 | > 100 µM | > 100 µM | > 100 | > 100 µM | > 100 |  |
| Cc1ccc(S(=O)(=O)ON=C2CC(c3ccccc3)N(C)C(c3ccccc3)C2)cc1 (configuration not stated) | 33.3 µM and 40.3 µM | 41.4 µM and 56.8 µM |  | 53.5 µM and 56.2 µM |  |  |
| C/C(=N\NC(=S)Nc1ccc([N+](=O)[O-])cc1S(=O)(=O)O)c1ccccn1 | > 100 µM | > 100 µM | > 100 | > 100 µM | 78.7 |  |
| CN(C)/C(=N/C(=O)Nc1ccccc1)SCc1ccccc1 | > 100 µM | > 100 µM |  | > 100 µM | > 100 |  |
| N#CCc1nc2c(s1)C(=O)c1ccccc1C2=O | 28.2 µM | 29.9 µM | 42.7 | 11.4 µM |  |  |
| O=C(O)C1C2CC3CC2CC31 (configuration not stated) | > 100 µM | > 100 µM | > 100 |  | > 100 |  |
| COc1cc(C(N)=O)c(OC)c(OC)c1OC | > 100 µM | > 100 µM | > 100 | > 100 µM |  |  |
| O=C1CCCc2c(O)ccc(O)c21 | > 100 µM | > 100 µM |  | > 100 µM |  |  |
| O=C1C=Cc2noc3cccc1c23 | 4.9 µM | 20.4 µM | 27.9 | 11.2 µM |  |  |
| COCCOC(=O)CCn1cc(F)c(=O)[nH]c1=O |  |  |  |  |  | GI50 (PC-3 prostate): 108 µg/mL; TGI (PC-3 prostate): > 150 µg/mL; GI50 (DU-145 prostate): 5.57 µg/mL; TGI (DU-145 prostate): > 150 µg/mL; GI50 (MDA-N): 2.29 µg/mL; TGI (MDA-N): > 150 µg/mL; GI50 (MCF7 breast): 1.13 µg/mL; TGI (MCF7 breast): > 150 µg/mL |
| O=C1CCC(c2ccccc2)(c2ccccc2)CC1 |  |  |  |  |  | TGI (PC-3 prostate): > 100 µM; TGI (DU-145 prostate): > 100 µM; TGI (MDA-N): > 100 µM; TGI (MCF7 breast): > 100 µM |
| O=[N+]([O-])C(=C(c1ccccc1)c1ccccc1)[N+](=O)[O-] | 29.2 µM | 22.5 µM |  |  |  |  |
| Clc1cccc(C2SCc3nc4ccccc4n32)c1Cl (configuration not stated) | 30.3 µM | 32.1 µM |  | 29.6 µM | 29.9 |  |
| Cc1ccc(C)c(NC(=O)CCc2n[nH]c(=S)o2)c1 | > 100 µM | > 100 µM | > 100 | > 100 µM | > 100 |  |
| COc1ccc2c3c([nH]c2c1)[C@H]1C[C@H]2[C@H](C[C@@H](O)[C@H](OC)[C@H]2C(=O)O)CN1CC3 |  |  |  |  |  | TGI (PC-3 prostate): > 100 µM; TGI (DU-145 prostate): > 100 µM; TGI (MDA-N): > 100 µM; TGI (MCF7 breast): > 100 µM |
| COS(=O)CCOC(=O)c1ccccc1SSc1ccccc1C(=O)OCCS(=O)OC (configuration not stated) | 47.2 µM | > 100 µM |  | > 100 µM | 62.8 |  |
| c1ccc(CN(Cc2ccccn2)Cn2cccn2)nc1 |  | > 100 µM | > 100 | > 100 µM | > 100 |  |
| CC1=CC(=O)c2[nH]c3ccccc3c2C1=O | 7.63 µM | 7.83 µM |  |  | 7.99 | GI50 (LXFL 529 NSCLC): 4.22 µM; GI50 (DMS 273 small cell lung): 4.26 µM; GI50 (XF 498 CNS): 4.38 µM |

From PubChem BioAssay (NCI)
